Measurements: US4724233A, “Therapeutical application of phosphonylmethoxyalkyl adenines” (Stichting Rega VZW, priority 1985, dated 1988)
Converted amounts (≈) assume the structure as drawn. Read-outs that look alike come from different tables or passages of the source.

What was measured:
Reovirus = assay: inhibition of cytopathic effect of reovirus; format: cell-based; settings: Reovirus sp.; Table 3; Vero B cells; read-out: MIC50
Parainfluenza 3 = assay: inhibition of cytopathic effect of parainfluenza 3; format: cell-based; settings: Table 3; Vero B cells; read-out: MIC50
Sindbis = assay: inhibition of cytopathic effect of Sindbis; format: cell-based; settings: Table 3; Vero B cells; read-out: MIC50
Coxsackie B4 = assay: inhibition of cytopathic effect of Coxsackie B4; format: cell-based; settings: Enterovirus B, B4; Table 3; Vero B, HeLa cells; read-out: MIC50
Polio 1 = assay: microbe, parasite or virus in culture; format: cell-based; settings: HeLa, read-out: MIC50
Measles = assay: inhibition of cytopathic effect of measles; format: cell-based; settings: Measles morbillivirus; Table 3; Vero Flow cells; read-out: MIC50
Vesicular stomatitis = assay: microbe, parasite or virus in culture; format: cell-based; settings: read-out: MIC50
Vaccinia = assay: microbe, parasite or virus in culture; format: cell-based; settings: Orthopoxvirus vaccinia, PRK, read-out: MIC50
Herpes simplex I (KOS) = assay: inhibition of cytopathic effect of herpes simplex 1 (KOS); format: cell-based, herpes simplex virus type 1; settings: PRK cells; for EC50: Human alphaherpesvirus 1, read-out: MIC50
Herpes simplex 2 (G) = assay: inhibition of cytopathic effect of herpes simplex 2 (G); format: cell-based, herpes simplex virus type 2; settings: Human alphaherpesvirus 2, PRK, PRK cells, read-out: MIC50
Moloney sarcoma = assay: inhibition of Moloney sarcoma virus; format: cell-based, Moloney mouse sarcoma virus; settings: Mus musculus; Table 3; MO cells; read-out: MIC50
[1] = test system: herpes simplex virus type 1 (HSV-1) (strain KOS); format: cell-based; settings: PRK cells
vaccinia virus (VV) = format: cell-based; settings: 100 μg/ml, PRK cells, average of two determinations
in vitro [2] = settings: rabbit, prk cells
[3] = antimetabolic activity: incorporation of 3H-labeled precursors into primary rabbit kidney cells; settings: rabbit, prk cells
HSV-1 (strain) McIntyre = assay: inhibition of cytopathic effect of HSV-1 strain McIntyre; format: cell-based, herpes simplex virus type 1; settings: Human alphaherpesvirus 1; Table 4; HSV-1 McIntyre, PRK cells; read-out: MIC50
HSV-1 (strain) F = assay: inhibition of cytopathic effect of HSV-1 strain F; format: cell-based, herpes simplex virus type 1; settings: Human alphaherpesvirus 1; Table 4; HSV-1 F, PRK cells; read-out: MIC50
[4] = test system: HSV-1 (strain) TK^- B2006; assay: inhibition of cytopathic effect of HSV-1 TK- strain B2006; format: cell-based, herpes simplex virus type 1; settings: Human alphaherpesvirus 1, PRK, read-out: MIC50
[5] = test system: HSV-1 (strain) TK^- C1101; assay: inhibition of cytopathic effect of HSV-1 TK- strain C1101; format: cell-based, herpes simplex virus type 1; settings: Human alphaherpesvirus 1, PRK, read-out: MIC50
HSV-2 (strain) 196 = assay: inhibition of cytopathic effect of HSV-2 strain 196; format: cell-based, herpes simplex virus type 2; settings: Human alphaherpesvirus 2; Table 4; HSV-2 196, PRK cells; read-out: MIC50
HSV-2 (strain) Lyons = assay: inhibition of cytopathic effect of HSV-2 strain Lyons; format: cell-based, herpes simplex virus type 2; settings: Human alphaherpesvirus 2; Table 4; HSV-2 Lyons, PRK cells; read-out: MIC50
VZV (strain) YS = assay: microbe, parasite or virus in culture; format: cell-based, varicella-zoster virus; settings: Human alphaherpesvirus 3, Table 5, HEL cells, read-out: MIC50
VZV (strain) OKa = assay: microbe, parasite or virus in culture; format: cell-based, varicella-zoster virus; settings: Human alphaherpesvirus 3, HEL, read-out: MIC50
VZV (strain) TK^- YSR = assay: microbe, parasite or virus in culture; format: cell-based, varicella-zoster virus; settings: Human alphaherpesvirus 3, HEL, read-out: MIC50
VZV (strain) TK^- 07-1 = assay: microbe, parasite or virus in culture; format: cell-based, varicella-zoster virus; settings: Human alphaherpesvirus 3, HEL, read-out: MIC50
CMV (strain) Davis = assay: inhibition of CMV strain Davis in HEL cells; format: cell-based, cytomegalovirus; settings: Human betaherpesvirus 5, Table 5, read-out: MIC50
CMV (strain) AD 169 = assay: inhibition of CMV strain AD 169 in HEL cells; format: cell-based, cytomegalovirus; settings: Human betaherpesvirus 5; Table 5; CMV AD 169, HEL cells; read-out: MIC50
TK^- herpes viruses = settings: Prusoff et al.; cited from earlier work
in vitro [6] = settings: rabbit, prk cells; remark: listed apart in the source

In the case of `Nc1ncnc2c1ncn2C[C@H](O)CO` [(S)-DHPA, 9-(S)-(2,3-dihydroxypropyl)adenine, reference compound], the EC50 (Reovirus) was 100 µg/mL (≈ 478 µM), the EC50 (Parainfluenza 3) was 25 µg/mL (≈ 119 µM) and the EC50 (Sindbis) was > 400 µg/mL. For the same compound, the EC50 (Coxsackie B4) was 130 µg/mL (≈ 621 µM), the EC50 (Polio 1) was > 400 µg/mL and the EC50 (Measles) was 20 µg/mL (≈ 95.6 µM). The EC50 (Vesicular stomatitis) was 20 µg/mL (≈ 95.6 µM), the EC50 (Vaccinia) was 50 µg/mL (≈ 239 µM) and the EC50 (Herpes simplex I (KOS); Table 3) was > 400 µg/mL. The EC50 (Herpes simplex 2 (G); Table 3) was > 400 µg/mL, the EC50 (Moloney sarcoma) was > 200 µg/mL and the “Titer of HSV-1” value ([1]; 1 h, 100 μg/ml) was 1.3 log10 PFU/ml. For the same compound, the “Titer of HSV-1” value ([1]; 24 h, 100 μg/ml) was 6.5 log10 PFU/ml, the “Titer of HSV-1” value ([1]; 48 h, 100 μg/ml) was 6.9 log10 PFU/ml and the “Titer of HSV-1” value ([1]; 72 h, 100 μg/ml) was 6.9 log10 PFU/ml. For the same compound, the “Titer of VV” value (vaccinia virus (VV); 1 h) was 2.0 log10 PFU/ml, the “Titer of VV” value (vaccinia virus (VV); 24 h) was 4.7 log10 PFU/ml and the “Titer of VV” value (vaccinia virus (VV); 48 h) was 5.2 log10 PFU/ml. The “Titer of VV” value (vaccinia virus (VV); 72 h) was 5.5 log10 PFU/ml, the MCC at 72 h (in vitro [2]) was > 400 µg/mL and the IC50 ([3]; ID50 Leu incorporation, (3H-4,5)Leu) was > 400 µg/mL. For the same compound, the IC50 ([3]; ID50 Urd incorporation, (3H-5)Urd) was > 400 µg/mL, the IC50 ([3]; ID50 dThd incorporation, (3H-methyl) dThd) was 350 µg/mL (≈ 1670 µM) and the IC50 ([3]; ID50 dUrd incorporation, (3H-1',2')dUrd) was > 400 µg/mL.
`O=c1[nH]c(=O)n([C@H]2C[C@H](O)[C@@H](CO)O2)cc1/C=C/Br` [BVDU, (E)-5-(2-bromovinyl)-2'-deoxyuridine, reference compound] showed an EC50 (Herpes simplex I (KOS); Table 4, HSV-1 KOS) of 0.02 µg/mL (≈ 0.06 µM), an EC50 (Herpes simplex 2 (G); Table 4, HSV-2 G) of 2 µg/mL (≈ 6 µM) and an EC50 (HSV-1 (strain) McIntyre) of 0.02 µg/mL (≈ 0.06 µM). The EC50 (HSV-1 (strain) F) was 0.02 µg/mL (≈ 0.06 µM), the EC50 [4] was > 200 µg/mL and the EC50 [5] was 70 µg/mL (≈ 210 µM). It also gave an EC50 (HSV-2 (strain) 196) of 70 µg/mL (≈ 210 µM), an EC50 (HSV-2 (strain) Lyons) of 7 µg/mL (≈ 21 µM) and an EC50 (VZV (strain) YS) of 0.006 µg/mL (≈ 0.018 µM). For the same compound, the EC50 (VZV (strain) OKa) was 0.007 µg/mL (≈ 0.021 µM), the EC50 (VZV (strain) TK^- YSR) was > 400 µg/mL and the EC50 (VZV (strain) TK^- 07-1) was > 400 µg/mL. The EC50 (CMV (strain) Davis) was 300 µg/mL (≈ 901 µM), the EC50 (CMV (strain) AD 169) was 200 µg/mL (≈ 600 µM) and the “activity against TK^- herpes viruses (in words)” value (TK^- herpes viruses) was “inactive”.
`O=c1[nH]c(=O)n([C@H]2C[C@H](O)[C@@H](CO)O2)cc1I` [IDU, 5-iodo-2'-deoxyuridine, reference compound] gave an EC50 (Herpes simplex I (KOS); Table 4, HSV-1 KOS) of 0.2 µg/mL (≈ 0.565 µM), an EC50 (Herpes simplex 2 (G); Table 4, HSV-2 G) of 0.2 µg/mL (≈ 0.565 µM) and an EC50 (HSV-1 (strain) McIntyre) of 0.2 µg/mL (≈ 0.565 µM). It also gave an EC50 (HSV-1 (strain) F) of 0.2 µg/mL (≈ 0.565 µM), an EC50 (HSV-2 (strain) 196) of 2 µg/mL (≈ 5.65 µM) and an EC50 (HSV-2 (strain) Lyons) of 0.2 µg/mL (≈ 0.565 µM).
In the case of `Nc1ncnc2c1ncn2CCOCP(=O)(O)O` [No. 6, 9-(2-phosphonylmethoxyethyl)adenine], the EC50 (Reovirus) was > 400 µg/mL, the EC50 (Parainfluenza 3) was > 400 µg/mL and the EC50 (Sindbis) was > 400 µg/mL. The EC50 (Coxsackie B4) was > 200 µg/mL, the EC50 (Polio 1) was > 400 µg/mL and the EC50 (Measles) was > 400 µg/mL. The EC50 (Vesicular stomatitis) was > 400 µg/mL, the EC50 (Vaccinia) was 300 µg/mL (≈ 1100 µM) and the EC50 (Herpes simplex I (KOS); Table 3) was 15 to 30 µg/mL (≈ 54.9 to 110 µM). It also gave an MIC50 (Herpes simplex I (KOS); Table 4, HSV-1 KOS) of 15 to 30 µg/mL, an EC50 (Herpes simplex 2 (G); Table 3) of 7 µg/mL (≈ 25.6 µM) and an EC50 (Moloney sarcoma) of 0.67 µg/mL (≈ 2.45 µM). The EC50 (HSV-1 (strain) McIntyre) was 30 µg/mL (≈ 110 µM), the EC50 [4] was 3 µg/mL (≈ 11 µM) and the EC50 [5] was 7 µg/mL (≈ 25.6 µM). The EC50 (HSV-2 (strain) 196) was 15 µg/mL (≈ 54.9 µM), the EC50 (HSV-2 (strain) Lyons) was 15 µg/mL (≈ 54.9 µM) and the “Titer of HSV-1” value ([1]; 24 h, 100 μg/ml) was < 1.3 log10 PFU/ml. For the same compound, the “Titer of HSV-1” value ([1]; 48 h, 10 μg/ml (value in parentheses)) was 6.36 log10 PFU/ml, the “Titer of HSV-1” value ([1]; 48 h, 100 μg/ml) was 3.34 log10 PFU/ml and the “Titer of VV” value (vaccinia virus (VV); 48 h) was 5.54 log10 PFU/ml. For the same compound, the MCC at 72 h (in vitro [2]) was ≥ 200 µg/mL, the IC50 (in vitro [6]; ID50 Leu incorporation) was > 400 µg/mL and the IC50 (in vitro [6]; ID50 Urd incorporation) was > 400 µg/mL. For the same compound, the IC50 (in vitro [6]; ID50 dThd incorporation) was 242 µg/mL (≈ 886 µM) and the IC50 (in vitro [6]; ID50 dUrd incorporation) was 114 µg/mL (≈ 417 µM).
